Test results published in patent US8703483B2, “Reagents and methods for using human embryonic stem cells to evaluate toxicity of pharmaceutical compounds and other chemicals” (Wisconsin Alumni Research Foundation, priority 2006, dated 2014).

System: human embryonic stem cells
Assay: Metabolite profiling (LC/ESI-TOF mass spectrometry) of extracellular media of hESCs treated with alcohol
Assay type: cell-based
Conditions: ETOH 0.1; 4 D
Text: Binned masses were annotated in silico by querying the neutral masses in several different databases. These databases included Metlin, Biological Magnetic Resonance Data Bank (BMRB), NIST Chemistry WebBook, and the Human Metabolome Database. A mass was considered identified when its neutral mass was within 10 ppm of a known compound annotated in one of the databases listed above.

CCO [ETOH]
Fold: 2-Oxo-4-methylthiobutanoic acid, mass 148.016, RT 52.88652: −2.444 fold
Fold: 3-(2,5-Dimethoxy phenylpropionic acid, mass 210.0922, RT 36.18938): 1.864 fold
Fold: (+)-Eudesmin, mass 386.1724, RT 51.65871: 5.309 fold
Fold: (+/−)-2-(4′-Isobutylphenyl)propionitrile, mass 187.1348, RT 46.31086: 2.329 fold
Fold: Acetylcarnitine / L-Glutamic acid n-butyl ester, mass 203.1138, RT 9.675726: −1.707 fold
Fold: Benzenemethanol, 2-(2-aminopropoxy)-3-methyl- / a-[1-(ethylamino)ethyl]-p-hydroxy-Benzyl alcohol, mass 195.124, RT 31.19917: −2.225 fold
Fold: Benzenemethanol, 2-(2-aminopropoxy)-3-methyl- / a-[1-(ethylamino)ethyl]-p-hydroxy-Benzyl alcohol, mass 195.1253, RT 38.99212: 2.159 fold
Fold: Homogentisic acid / Vanillic acid, mass 168.0434, RT 19.18355: −1.468 fold
Fold: L-Oleandrosyl-oleandolide, mass 530.314, RT 23.87065: 1.965 fold
Fold: L-Urobilinogen;, mass 596.3543, RT 25.14927: 1.396 fold
Fold: N-Methyl-2-pyrrolidinone, mass 99.0689, RT 15.48433: 1.434 fold
Fold: Neu5Acalpha2-3Galbeta1-4Glcbeta-Sp / Neu5Acalpha2-6Galbeta1-4Glcbeta-Sp, mass 702.2497, RT 40.84822: −2.769 fold
Fold: Pantothenol / dimethylbutanamide;, mass 205.1304, RT 6.747279: −1.2578 fold
Fold: Phenanthrene-9,10-oxide, mass 194.073, RT 5.935143: −1.389 fold
Fold: Unknown, mass 99.1043, RT 52.01225: 2.703 fold
Fold: Unknown, mass 120.2112, RT 13.40565: 4.847 fold
Fold: Unknown, mass 131.076, RT 14.35336: 3.629 fold
Fold: Unknown, mass 197.1769, RT 48.37093: −3.119 fold
Fold: Unknown, mass 243.1089, RT 17.7027: −2.181 fold
Fold: Unknown, mass 268.2487, RT 42.3656: −1.55 fold
Fold: Unknown, mass 272.16, RT 43.99398: 2.187 fold
Fold: Unknown, mass 292.1862, RT 37.97297: 2.239 fold
Fold: Unknown, mass 293.9773, RT 4.014175: 1.939 fold
Fold: Unknown, mass 295.1521, RT 8.967061: 1.513 fold
Fold: Unknown, mass 298.174, RT 50.75387: −3.002 fold
Fold: Unknown, mass 300.1147, RT 18.88505: 2.686 fold
Fold: Unknown, mass 301.1345, RT 7.719471: 6.649 fold
Fold: Unknown, mass 312.1341, RT 15.22357: −2.015 fold
Fold: Unknown, mass 315.6732, RT 26.51229: 2.015 fold
Fold: Unknown, mass 325.2711, RT 18.82373: −1.756 fold
Fold: Unknown, mass 325.2714, RT 20.94557: −2.074 fold
Fold: Unknown, mass 353.2765, RT 3.85935: 2.622 fold
Fold: Unknown, mass 357.1781, RT 25.16993: 2.217 fold
Fold: Unknown, mass 359.1532, RT 24.01428: 1.536 fold
Fold: Unknown, mass 360.1321, RT 18.50245: 2.11 fold
Fold: Unknown, mass 362.2787, RT 83.72506: 2.916 fold
Fold: Unknown, mass 368.2122, RT 27.98054: 1.695 fold
Fold: Unknown, mass 379.1771, RT 20.76168: 1.54 fold
Fold: Unknown, mass 383.1721, RT 15.20829: 1.915 fold
Fold: Unknown, mass 384.2127, RT 23.38956: −2.556 fold
Fold: Unknown, mass 387.0812, RT 19.97914: −1.977 fold
Fold: Unknown, mass 388.2349, RT 46.346: 1.947 fold
Fold: Unknown, mass 403.1978, RT 51.66325: 3.116 fold
Fold: Unknown, mass 405.2001, RT 30.70733: 2.668 fold
Fold: Unknown, mass 408.1636, RT 16.21743: 1.966 fold
Fold: Unknown, mass 417.2338, RT 33.09057: 2.033 fold
Fold: Unknown, mass 417.2386, RT 21.14975: −1.98 fold
Fold: Unknown, mass 420.1862, RT 26.77212: 3.283 fold
Fold: Unknown, mass 429.2533, RT 18.03482: −1.808 fold
Fold: Unknown, mass 429.2535, RT 30.24237: 1.805 fold
Fold: Unknown, mass 431.2501, RT 35.58196: 1.532 fold
Fold: Unknown, mass 440.0223, RT 4.808947: −1.528 fold
Fold: Unknown, mass 443.2381, RT 24.13915: 2.986 fold
Fold: Unknown, mass 443.3216, RT 67.0705: 1.752 fold
Fold: Unknown, mass 444.2237, RT 51.58546: 2.131 fold
Fold: Unknown, mass 460.9391, RT 33.51823: −4.518 fold
Fold: Unknown, mass 467.3804, RT 46.51446: 2.068 fold
Fold: Unknown, mass 468.2002, RT 51.6158: 1.875 fold
Fold: Unknown, mass 471.7804, RT 30.72707: −2.836 fold
Fold: Unknown, mass 478.2761, RT 30.28867: 1.699 fold
Fold: Unknown, mass 487.3472, RT 66.73744: 2.931 fold
Fold: Unknown, mass 489.2127, RT 21.72729: −1.51 fold
Fold: Unknown, mass 510.8202, RT 31.22083: 2.488 fold
Fold: Unknown, mass 525.3161, RT 34.57864: 1.551 fold
Fold: Unknown, mass 526.2773, RT 51.73057: 3.446 fold
Fold: Unknown, mass 531.2876, RT 32.50661: 2.106 fold
Fold: Unknown, mass 531.3191, RT 35.58454: −1.252 fold
Fold: Unknown, mass 531.3736, RT 66.31491: 3.863 fold
Fold: Unknown, mass 541.3274, RT 32.24719: 2.162 fold
Fold: Unknown, mass 545.3029, RT 17.6573: −1.395 fold
Fold: Unknown, mass 554.8471, RT 31.891: 2.038 fold
Fold: Unknown, mass 555.2406, RT 15.78741: 1.835 fold
Fold: Unknown, mass 555.8505, RT 5.742094: −1.289 fold
Fold: Unknown, mass 556.3971, RT 88.02533: −3.118 fold
Fold: Unknown, mass 559.8329, RT 31.97996: −1.7213 fold
Fold: Unknown, mass 574.3397, RT 24.7039: 1.584 fold
Fold: Unknown, mass 574.3427, RT 31.71105: 1.75 fold
Fold: Unknown, mass 576.096, RT 47.90467: 1.361 fold
Fold: Unknown, mass 589.6938, RT 35.26918: 1.82 fold
Fold: Unknown, mass 591.3789, RT 31.54325: 1.578 fold
Fold: Unknown, mass 603.3535, RT 32.67372: −2.63 fold
Fold: Unknown, mass 619.3409, RT 33.68866: 1.857 fold
Fold: Unknown, mass 620.8861, RT 32.73907: 2.249 fold
Fold: Unknown, mass 635.4065, RT 32.08734: 1.393 fold
